Test results from patent US9669061B2, “Medicinal agent exhibiting antiprotozoal activity to Trichomonas vaginalis in an in-vitro model system” (Viktor Ivanovich Roschin, priority 2008, dated 2017).
Converted amounts (≈) assume the structure as drawn.

Tested on: T. vaginalis isolates
Experiment: Sensitivity of T. vaginalis isolates to metronidazole (serial dilution MIC by immobilisation; lysis method for amastigote forms)
Format: cell-based, Trichomonas vaginalis
Details: for MIC: Trichomonas vaginalis
Method: Then, the sensitivity of T. vaginalis to metronidazole was examined in vitro, using as an indicator the immobilisation of the trichomonad by the test-substance. For the sensitivity test, 90% or more of the protozoa were required to be motile. The sensitivity of T. vaginalis isolates to metronidazole was determined using serials dilution and the minimum inhibitory concentration (MIC) method. 4.0 ml of the medium was placed in test tubes and mixed with 0.5 ml of solution various concentrations of metronidazole—from 0.25 to 1000 μg/ml, or 1 mg/ml).
Then, 0.5 ml of pathogenic culture containing a known concentration of T. vaginalis (cells/ml) was added to the test tubes. Media without the test substance was used as a control. Vaseline was added to the surface (0.5 mm layer) of the tubes to create anaerobic conditions necessary for the growth of T.vaginalis. The test tubes were then placed in a thermostat at 37° C. Results were recorded 48 and 96 hours after inoculation.
The sensitivity of trichomonad to metronidazole was determined based on the minimum inhibitory concentration (MIC), which causes immobilisation of all cells of T.vaginalis. The strains were considered as resistant to metronidazole, when immobilisation occurred at concentration of metronidazole exceeding 15 μg/ml.
The MIC method cannot be used when atypical, amastigote (lacking flagella) T. vaginalis are present. Instead, a common in vitro lysis method for determining the sensitivity to antiprotozoal medications was used. Lysis of all trichomonas is an indicator of the efficacy of the test substance. Nutrient media containing trichomonas without metronidazole was used as a control. Metronidazole, at concentrations of 10, 15, 25, and 50 μg/ml was used in this experiment. Strains that lysed at a concentration of 25 μg/ml were considered resistant to metronidazole.

Q: With Cc1ncc([N+](=O)[O-])n1CCO [Metronidazole, metronidazole] as the compound, how does the MIC (isolate 1 (actively mobile)) read?
A: 15 µg/mL (≈ 87.6 µM)

Q: What about the MIC (isolate 2 (actively mobile)) of the same compound?
A: 15 µg/mL (≈ 87.6 µM)

Q: And the MIC (isolate 3 (actively mobile))?
A: 25 µg/mL (≈ 146 µM)

Q: What about the MIC (isolate 4 (amastigote)) of the same compound?
A: 50 µg/mL (≈ 292 µM)

Q: And the MIC (isolate 5 (amastigote))?
A: 25 µg/mL (≈ 146 µM)

Q: What about the MIC (isolate 6 (amastigote)) of the same compound?
A: 50 µg/mL (≈ 292 µM)

Q: And the MIC (isolate 7 (amastigote))?
A: 25 µg/mL (≈ 146 µM)

Q: And the MIC (isolate 8 (amastigote))?
A: 25 µg/mL (≈ 146 µM)

Q: And the MIC (isolate 9 (amastigote))?
A: > 50 µg/mL

Q: And the MIC (isolate 10 (amastigote))?
A: 50 µg/mL (≈ 292 µM)

Q: What about the MIC (strains 4, 6, 9 and 10) of the same compound?
A: > 25 µg/mL

Q: What about the “number of isolates (out of 10) on which metronidazole had an effect” value (metronidazole 15 μg/ml) of the same compound?
A: 2

Q: And the “resistance of isolates to metronidazole” value (the rest of the isolates (not affected at 15 μg/ml))?
A: resistant
